From ChEMBL document CHEMBL1151840, “Synthetic oligoribonucleotides containing arabinonucleotides act as agonists of TLR7 and 8” (Bioorg Med Chem Lett, 2009)
Calls of active or inactive are those of the source. The calls are words filed in the database; no cut-off is given here.

Columns and labels:
PBMC [1] = experiment: Stimulation of immune response in human PBMC assessed as induction of MIP1alpha production at 150 ug/ml after 24 hrs; type: functional, cell-based
PBMC [2] = experiment: Stimulation of immune response in human PBMC assessed as induction of IFNalpha production at 150 ug/ml after 24 hrs; type: functional, cell-based
PBMC [3] = experiment: Stimulation of immune response in human PBMC assessed as induction of TNFalpha production at 150 ug/ml after 24 hrs; type: functional, cell-based
PBMC [4] = experiment: Stimulation of immune response in human PBMC assessed as induction of IFN-gamma production at 150 ug/ml after 24 hrs; type: functional, cell-based
Homo sapiens [5] = species: Homo sapiens; experiment: Stimulation of immune response in human pDC assessed as induction of MIP1alpha production at 150 ug/ml after 24 hrs; type: functional
PBMC [6] = experiment: Stimulation of immune response in human PBMC assessed as induction of IL1-beta production at 150 ug/ml after 24 hrs; type: functional, cell-based
[7] = biological target: T1, Toll-like receptor 7 (Homo sapiens) (UniProt Q9NYK1); experiment: Agonist activity at human TLR7 expressed in HEK293XL cells assessed as NF-kappaB activation at 300 ug/ml after 18 hrs; type: functional, cell-based
T1 sequence (whole entry): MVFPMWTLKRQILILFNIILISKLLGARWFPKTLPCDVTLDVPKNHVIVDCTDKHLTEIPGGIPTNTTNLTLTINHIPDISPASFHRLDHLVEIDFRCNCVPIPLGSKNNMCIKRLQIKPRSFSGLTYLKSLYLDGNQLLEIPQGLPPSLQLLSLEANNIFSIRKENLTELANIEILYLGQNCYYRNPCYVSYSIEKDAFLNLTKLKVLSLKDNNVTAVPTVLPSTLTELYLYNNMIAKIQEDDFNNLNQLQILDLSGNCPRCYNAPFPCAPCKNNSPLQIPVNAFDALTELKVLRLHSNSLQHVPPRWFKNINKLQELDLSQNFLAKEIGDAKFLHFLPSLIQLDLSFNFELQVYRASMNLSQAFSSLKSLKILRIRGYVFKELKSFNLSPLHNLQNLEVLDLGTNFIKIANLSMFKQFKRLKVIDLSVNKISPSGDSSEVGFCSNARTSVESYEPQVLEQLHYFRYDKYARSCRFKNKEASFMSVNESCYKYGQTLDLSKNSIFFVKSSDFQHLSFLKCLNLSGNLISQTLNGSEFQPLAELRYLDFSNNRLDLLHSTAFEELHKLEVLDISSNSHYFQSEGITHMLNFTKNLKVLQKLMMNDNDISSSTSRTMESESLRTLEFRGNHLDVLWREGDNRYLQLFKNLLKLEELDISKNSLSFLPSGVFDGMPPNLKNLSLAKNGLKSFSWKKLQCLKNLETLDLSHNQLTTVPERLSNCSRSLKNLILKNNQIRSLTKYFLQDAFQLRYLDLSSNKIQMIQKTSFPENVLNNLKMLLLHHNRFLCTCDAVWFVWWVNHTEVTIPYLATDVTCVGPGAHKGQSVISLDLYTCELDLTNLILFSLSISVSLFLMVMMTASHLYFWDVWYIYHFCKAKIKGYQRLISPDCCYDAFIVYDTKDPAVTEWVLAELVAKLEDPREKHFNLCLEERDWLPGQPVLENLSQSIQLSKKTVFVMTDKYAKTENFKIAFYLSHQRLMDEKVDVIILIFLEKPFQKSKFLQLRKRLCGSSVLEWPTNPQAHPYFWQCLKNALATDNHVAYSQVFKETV

Homo sapiens [8] = species: Homo sapiens; experiment: Stimulation of immune response in human pDC assessed as induction of TNFalpha production at 150 ug/ml after 24 hrs; type: functional
PBMC [9] = experiment: Stimulation of immune response in human PBMC assessed as induction of IL10 production at 150 ug/ml after 24 hrs; type: functional, cell-based
Mus musculus = experiment: Stimulation of immune response in C57BL/6 mouse assessed as induction of serum IL12 production at 50 mg/kg, sc after 2 hrs by luminex multiplex assay; type: functional, organism-based; set-up: dose 50 mg/kg
PBMC [10] = experiment: Stimulation of immune response in human PBMC assessed as induction of IL2R level at 150 ug/ml after 24 hrs; type: functional, cell-based
PBMC [11] = experiment: Stimulation of immune response in human PBMC assessed as induction of MCP1 production at 150 ug/ml after 24 hrs; type: functional, cell-based
PBMC [12] = experiment: Stimulation of immune response in human PBMC assessed as induction of IL12 production at 150 ug/ml after 24 hrs; type: functional, cell-based
Homo sapiens [13] = species: Homo sapiens; experiment: Stimulation of immune response in human pDC assessed as induction of IFNalpha production at 150 ug/ml after 24 hrs; type: functional
[14] = biological target: T2, Toll-like receptor 8 (Homo sapiens) (UniProt Q9NR97); experiment: Agonist activity at human TLR8 expressed in HEK293XL cells assessed as NF-kappaB activation after 18 hrs; type: functional, cell-based
T2 sequence (whole entry): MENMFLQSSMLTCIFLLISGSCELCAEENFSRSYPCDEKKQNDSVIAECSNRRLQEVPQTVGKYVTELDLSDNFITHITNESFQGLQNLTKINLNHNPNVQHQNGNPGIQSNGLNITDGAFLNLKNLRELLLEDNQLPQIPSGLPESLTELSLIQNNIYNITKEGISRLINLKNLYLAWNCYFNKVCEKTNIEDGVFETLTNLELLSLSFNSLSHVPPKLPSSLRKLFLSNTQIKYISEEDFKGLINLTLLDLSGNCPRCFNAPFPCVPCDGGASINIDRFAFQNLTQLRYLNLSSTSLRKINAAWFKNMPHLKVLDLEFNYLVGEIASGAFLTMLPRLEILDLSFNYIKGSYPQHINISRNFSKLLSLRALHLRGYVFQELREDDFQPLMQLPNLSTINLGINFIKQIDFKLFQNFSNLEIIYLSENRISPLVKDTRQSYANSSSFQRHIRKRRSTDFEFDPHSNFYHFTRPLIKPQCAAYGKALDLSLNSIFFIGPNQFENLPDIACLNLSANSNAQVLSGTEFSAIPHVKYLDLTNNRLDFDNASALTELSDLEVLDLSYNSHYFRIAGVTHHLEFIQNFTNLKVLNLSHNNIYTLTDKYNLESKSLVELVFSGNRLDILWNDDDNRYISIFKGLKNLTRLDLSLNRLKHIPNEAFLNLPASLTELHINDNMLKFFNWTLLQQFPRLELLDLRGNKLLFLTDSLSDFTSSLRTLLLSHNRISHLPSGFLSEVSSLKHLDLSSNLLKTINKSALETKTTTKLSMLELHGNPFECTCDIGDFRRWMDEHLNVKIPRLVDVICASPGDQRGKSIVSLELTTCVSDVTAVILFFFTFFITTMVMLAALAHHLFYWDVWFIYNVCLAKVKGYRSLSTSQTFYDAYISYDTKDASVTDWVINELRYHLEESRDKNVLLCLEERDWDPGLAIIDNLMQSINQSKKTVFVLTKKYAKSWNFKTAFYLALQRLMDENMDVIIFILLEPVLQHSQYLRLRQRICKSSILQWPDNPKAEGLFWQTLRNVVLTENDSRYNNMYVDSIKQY

Homo sapiens [15] = species: Homo sapiens; experiment: Stimulation of immune response in human pDC assessed as induction of IL12 production at 150 ug/ml after 24 hrs; type: functional
Homo sapiens [16] = species: Homo sapiens; experiment: Stimulation of immune response in human pDC assessed as induction of MIP1beta production at 150 ug/ml after 24 hrs; type: functional
PBMC [17] = experiment: Stimulation of immune response in human PBMC assessed as induction of MIP1beta production at 150 ug/ml after 24 hrs; type: functional, cell-based
Homo sapiens [18] = species: Homo sapiens; experiment: Stimulation of immune response in human pDC assessed as induction of IFN-gamma production at 150 ug/ml after 24 hrs; type: functional
PBMC [19] = experiment: Stimulation of immune response in human PBMC assessed as induction of RANTES production at 150 ug/ml after 24 hrs; type: functional, cell-based
PBMC [20] = experiment: Stimulation of immune response in human PBMC assessed as induction of IL8 production at 150 ug/ml after 24 hrs; type: functional, cell-based

- Activity [7]: inactive
- Activity [14]: Dose-dependent effect
Compound: Nc1ccn([C@@H]2O[C@H](COP(=O)(S)O[C@H]3[C@@H](O)[C@H](n4cnc5c(N)ncnc54)O[C@@H]3COP(=O)(S)O[C@H]3[C@@H](O)[C@H](n4cnc5c(=O)[nH]c(N)nc54)O[C@@H]3COP(=O)(S)O[C@H]3[C@@H](O)[C@H](n4ccc(=O)[nH]c4=O)O[C@@H]3COP(=O)(S)O[C@H]3[C@@H](O)[C@H](n4cnc5c(=O)[nH]c(N)nc54)O[C@@H]3COP(=O)(S)O[C@H]3[C@@H](O)[C@H](n4ccc(=O)[nH]c4=O)O[C@@H]3COP(=O)(S)O[C@H]3[C@@H](O)[C@H](n4cnc5c(=O)[nH]c(N)nc54)O[C@@H]3COP(=O)(S)O[C@H]3[C@@H](O)[C@H](n4ccc(=O)[nH]c4=O)O[C@@H]3COP(=O)(S)O[C@H]3[C@@H](O)[C@H](n4ccc(=O)[nH]c4=O)O[C@@H]3COP(=O)(S)O[C@H]3[C@@H](O)[C@H](n4cnc5c(=O)[nH]c(N)nc54)O[C@@H]3COP(=O)(S)O[C@H]3[C@@H](O)[C@H](n4ccc(=O)[nH]c4=O)O[C@H]3CO)[C@@H](OP(=O)(S)OCC(O)COP(=O)(S)O[C@H]3[C@@H](O)[C@H](n4ccc(N)nc4=O)O[C@@H]3COP(=O)(S)O[C@H]3[C@@H](O)[C@H](n4cnc5c(N)ncnc54)O[C@@H]3COP(=O)(S)O[C@H]3[C@@H](O)[C@H](n4cnc5c(=O)[nH]c(N)nc54)O[C@@H]3COP(=O)(S)O[C@H]3[C@@H](O)[C@H](n4ccc(=O)[nH]c4=O)O[C@@H]3COP(=O)(S)O[C@H]3[C@@H](O)[C@H](n4cnc5c(=O)[nH]c(N)nc54)O[C@@H]3COP(=O)(S)O[C@H]3[C@@H](O)[C@H](n4ccc(=O)[nH]c4=O)O[C@@H]3COP(=O)(S)O[C@H]3[C@@H](O)[C@H](n4cnc5c(=O)[nH]c(N)nc54)O[C@@H]3COP(=O)(S)O[C@H]3[C@@H](O)[C@H](n4ccc(=O)[nH]c4=O)O[C@@H]3COP(=O)(S)O[C@H]3[C@@H](O)[C@H](n4ccc(=O)[nH]c4=O)O[C@@H]3COP(=O)(S)O[C@H]3[C@@H](O)[C@H](n4cnc5c(=O)[nH]c(N)nc54)O[C@@H]3COP(=O)(S)O[C@H]3[C@@H](O)[C@H](n4ccc(=O)[nH]c4=O)O[C@@H]3CO)[C@H]2O)c(=O)n1 (stereo in doubt; 6)
- Activity (PBMC [1]): Active
- Activity (PBMC [2]): Active
- Activity (PBMC [3]): Active
- Activity (PBMC [4]): Active
- Activity (Homo sapiens [5]): Active
- Activity (PBMC [6]): Active
- Activity (Homo sapiens [8]): Active
- Activity (PBMC [9]): Active
- Activity (Mus musculus): inactive
- Activity (PBMC [10]): Active
- Activity (PBMC [11]): Active
- Activity (PBMC [12]): Active
- Activity (Homo sapiens [13]): inactive
- Activity (Homo sapiens [15]): Active
- Activity (Homo sapiens [16]): Active
- Activity (PBMC [17]): Active
- Activity (Homo sapiens [18]): Active
- Activity (PBMC [19]): Active
- Activity (PBMC [20]): Active
